± gives the standard deviation of the averaged measurements.
Assays:
Test in all cases: level (log10 ratio to DMSO vehicle control); higher = higher biomarker level / cell amount than vehicle control
Conditions in all cases: in DMSO
[1] = compound: O=C(O)C(F)(F)C(F)(F)C(F)(F)C(F)(F)F [Perfluoropentanoic acid]
Procedure: (§1)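 BioMAP Diversity Plus panel of 12 human primary cell co-culture systems (3C, 4H, LPS, SAg, BT, BF4T, BE3C, CASM3C, HDF3CGF, KF3CT, MyoF, Mphg). Compounds were added 1 h before stimulation and left for 24 h (MyoF 48 h; BT 72 h for soluble read-outs or 6 d for IgG). Biomarkers were read by ELISA, cytotoxicity by SRB, PBMC viability and proliferation by Alamar Blue. Each well value was divided by the mean of 8 DMSO control wells on the same plate and log10 transformed; duplicate blinded samples were tested at 4 concentrations.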

[2] = compound: C=C(C)C(=O)OCCC(F)(F)C(F)(F)C(F)(F)C(F)(F)C(F)(C(F)(F)F)C(F)(F)F [(Perfluoro-5-methylhexyl)ethyl 2-methylprop-2-enoate]
Procedure: as §1

[3] = compound: NC(=O)C(F)(F)C(F)(F)F [Pentafluoropropionamide]
Procedure: as §1

[4] = compound: O=C(O)C(F)(F)C(F)(F)C(F)(F)C(F)(F)C(F)(F)C(F)(F)F [Perfluoroheptanoic acid]
Procedure: as §1

[5] = compound: O=C(O)C(F)(F)C(F)(F)C(F)(F)C(F)(F)C(F)(F)C(F)(F)C(F)(F)C(F)F [9-H-Perfluorononanoic acid]
Procedure: as §1

[6] = compound: O=C(O)C(F)(F)C(F)(F)C(F)F [4H-Perfluorobutanoic acid]
Procedure: as §1

[7] = compound: NC(=O)C(F)(F)C(F)(F)C(F)(F)F [Heptafluorobutyramide]
Procedure: as §1

Test System	level (log10) ([1]; 6700 nM)	level (log10) ([1]; 20000 nM)	level (log10) ([1]; 60000 nM)	level (log10) ([2]; 6700 nM)	level (log10) ([2]; 20000 nM)	level (log10) ([3]; 6700 nM)	level (log10) ([3]; 20000 nM)	level (log10) ([3]; 60000 nM)	level (log10) ([4]; 6700 nM)	level (log10) ([4]; 20000 nM)	level (log10) ([4]; 60000 nM)	level (log10) ([5]; 6700 nM)	level (log10) ([5]; 20000 nM)	level (log10) ([5]; 60000 nM)	level (log10) ([6]; 6700 nM)	level (log10) ([6]; 20000 nM)	level (log10) ([6]; 60000 nM)	level (log10) ([7]; 6700 nM)	level (log10) ([7]; 20000 nM)	level (log10) ([7]; 60000 nM)
HDF3CGF:EGFR	0.008 ± 0.02	-0.0265 ± 0.013	-0.008 ± 0.027	-0.0695 ± 0.0078	-0.0415 ± 0.0064	0.006 ± 0.0085	-0.005 ± 0.011	0.007 ± 0.021	-0.008 ± 0.016	0.004 ± 0.0028	0.01 ± 0.023	-0.011 ± 0.0028	-0.024 ± 0.0057	-0.034 ± 0.014	-0.0155 ± 0.054	0.0005 ± 0.019	0.0725 ± 0.12	0.0095 ± 0.059	0.0005 ± 0.046	-0.0155 ± 0.032
HDF3CGF:M-CSF	0.0025 ± 0.019	-0.018 ± 0.0099	0.004 ± 0.0028	-0.0175 ± 0.0078	-0.0175 ± 0.0035	0.0015 ± 0.011	-0.0135 ± 0.0035	0.0085 ± 0.06	-0.009 ± 0.0099	0.0025 ± 0.015	0.01 ± 0.0014	-0.067 ± 0.0028	-0.0835 ± 0.011	-0.05 ± 0.027	-0.0305 ± 0.035	-0.013 ± 0.033	-0.015 ± 0.041	-0.0145 ± 0.00071	-0.009	0.0165 ± 0.035
HDF3CGF:MMP-1	-0.0165 ± 0.013	-0.0215 ± 0.0021	-0.0215 ± 0.011	0.002 ± 0.0085	0.008 ± 0.018	0.006 ± 0.0085	-0.011 ± 0.0085	-0.01	-0.0105 ± 0.012	0.0025 ± 0.00071	0.0065 ± 0.005	-0.047 ± 0.011	-0.0915 ± 0.013	-0.0745 ± 0.0078	0.0005 ± 0.0021	-0.0025 ± 0.0035	0.0075 ± 0.021	0.004 ± 0.011	-0.01	0.001 ± 0.0057
HDF3CGF:PAI-I	-0.0055 ± 0.026	-0.015 ± 0.013	0.007 ± 0.0014	-0.037 ± 0.0028	-0.0385 ± 0.019	0.0125 ± 0.04	-0.011 ± 0.044	0 ± 0.014	-0.017 ± 0.0028	-0.0215 ± 0.0035	-0.008 ± 0.041	-0.0135 ± 0.0092	0.004 ± 0.0028	0.0175 ± 0.023	-0.021 ± 0.12	0.0115 ± 0.1	0.03 ± 0.069	-0.0105 ± 0.018	-0.0275 ± 0.028	-0.0125 ± 0.03
HDF3CGF:Proliferation 72hr	0.002 ± 0.041	0.0505 ± 0.11	0.022 ± 0.03	-0.015 ± 0.0028	-0.014	0.0225 ± 0.018	0.045 ± 0.042	0.076 ± 0.013	-0.054 ± 0.033	0.0515 ± 0.098	-0.018 ± 0.018	0.062 ± 0.018	0.0905 ± 0.049	-0.0045 ± 0.098	-0.0415 ± 0.012	-0.03 ± 0.0042	0.066 ± 0.02	0.0015 ± 0.088	0.016 ± 0.041	-0.0205 ± 0.053
HDF3CGF:SRB	0.012 ± 0.011	0.01 ± 0.018	0.0125 ± 0.03	0.0055 ± 0.0092	0.008 ± 0.0028	-0.0105 ± 0.011	0.0265 ± 0.079	0.0445 ± 0.086	-0.029 ± 0.016	0.0125 ± 0.064	-0.045 ± 0.052	0.022 ± 0.023	0.0825 ± 0.03	0.148 ± 0.034	-0.0125 ± 0.06	-0.0095 ± 0.0035	0.0155 ± 0.022	0.018 ± 0.0014	0.0035 ± 0.025	0.0075 ± 0.03
HDF3CGF:TIMP-1	-0.0195 ± 0.0021	-0.032 ± 0.014	0.0115 ± 0.011	-0.035 ± 0.0071	-0.0345 ± 0.0078	-0.0265 ± 0.0092	-0.01 ± 0.018	0.0045 ± 0.032	-0.0015 ± 0.00071	-0.0115 ± 0.0035	-0.0055 ± 0.035	-0.04 ± 0.0042	0.008 ± 0.0071	0.0385 ± 0.0021	-0.015 ± 0.031	-0.007 ± 0.0014	0.0115 ± 0.021	0.002 ± 0.017	-0.017 ± 0.051	-0.001 ± 0.0042
HDF3CGF:TIMP-2	0.009 ± 0.024	-0.0155 ± 0.018	-0.0025 ± 0.011	0.0075 ± 0.026	-0.0295 ± 0.019	-0.0185 ± 0.026	0.008 ± 0.0057	0.033 ± 0.013	-0.011 ± 0.018	-0.012 ± 0.017	0.014 ± 0.0085	-0.07 ± 0.086	-0.0755 ± 0.028	-0.0595 ± 0.049	-0.0295 ± 0.066	-0.01 ± 0.044	-0.003 ± 0.059	-0.0195 ± 0.025	-0.0065 ± 0.033	-0.009 ± 0.071
KF3CT:CCL2/MCP-1	0.002 ± 0.02	-0.025 ± 0.025	0.0215 ± 0.05	-0.0235 ± 0.0092	-0.0125 ± 0.037	-0.0205 ± 0.015	-0.0285 ± 0.023	0.0155 ± 0.071	0.0165 ± 0.021	0.033 ± 0.024	0.0255 ± 0.053	-0.04 ± 0.0028	-0.0335 ± 0.0078	0.009 ± 0.065	-0.0705 ± 0.0092	-0.032 ± 0.0099	-0.0115 ± 0.023	-0.006 ± 0.0014	-0.009 ± 0.013	0.0165 ± 0.057
KF3CT:CD54/ICAM-1	0.004 ± 0.0057	0.001 ± 0.013	0.016 ± 0.028	-0.01 ± 0.0042	-0.0175 ± 0.0021	-0.009 ± 0.0057	-0.0045 ± 0.016	0.006 ± 0.018	-0.023 ± 0.0042	-0.0085 ± 0.0035	-0.0315 ± 0.00071	-0.0045 ± 0.016	-0.024 ± 0.0014	-0.0365 ± 0.0064	0.005 ± 0.0028	-0.0115 ± 0.0035	-0.006 ± 0.011	-0.012 ± 0.014	-0.002 ± 0.0028	0.0015 ± 0.012
KF3CT:CXCL8/IL-8	-0.0025 ± 0.019	-0.0035 ± 0.005	0.016 ± 0.0071	-0.013 ± 0.037	0.006 ± 0.03	-0.005 ± 0.0042	-0.0105 ± 0.005	0.0215 ± 0.012	-0.0055 ± 0.0064	0.002	0.0105 ± 0.00071	0.0035 ± 0.015	0.0085 ± 0.0078	0.008 ± 0.0071	0.0025 ± 0.0078	0.01 ± 0.0085	0.017 ± 0.0042	0.003	0.002 ± 0.0085	0.0095 ± 0.012
KF3CT:CXCL9/MIG	-0.002 ± 0.0057	-0.0055 ± 0.0021	0.0085 ± 0.013	0.018 ± 0.014	0.0215 ± 0.023	0.0055 ± 0.013	-0.0015 ± 0.0035	-0.0085 ± 0.012	-0.0085 ± 0.005	-0.0015 ± 0.0035	0.011 ± 0.013	-0.008 ± 0.0042	-0.009 ± 0.0028	-0.0045 ± 0.00071	-0.004 ± 0.016	-0.011 ± 0.011	-0.007 ± 0.0071	0.0065 ± 0.0021	0.0005 ± 0.0078	0.0155 ± 0.0064
KF3CT:CXCL10/IP-10	0.002 ± 0.0042	-0.0085 ± 0.0035	0.0025 ± 0.016	-0.0085 ± 0.012	-0.0325 ± 0.00071	-0.007 ± 0.0014	0 ± 0.0028	-0.0145 ± 0.0035	-0.003 ± 0.018	0.0125 ± 0.026	0.0155 ± 0.023	-0.0155 ± 0.0021	-0.0265 ± 0.0064	-0.039 ± 0.0099	-0.007 ± 0.016	-0.0035 ± 0.016	0.01 ± 0.0042	0.002 ± 0.0042	0.0015 ± 0.0078	0.005 ± 0.0099

From the supplement of paper PMC10331698
